Laboratory results as given in patent US10111901B2, “Beta-glucan in combination with anti-cancer agents affecting the tumor microenvironment” (Biothera, Inc., priority 2014, dated 2018).

How the values were obtained:
Type in all cases: cell-based, human
M2a macrophages = assay: Flow cytometry of CD163 and CD86 on activated M2a macrophages cultured in IL-4; conditions: M2a macrophages cultured in IL-4, immunosuppressive conditions
Procedure: Steps for an alternative method for in vitro culture and characterization of human macrophages that includes activation of M1 and M2 macrophages (designated M1a and M2a macrophages) are outlined below. This methodology was used in the next series of experiments.
(§1) Phenotypic and functional evaluation of β-glucan-treated M2a and β-glucan-treated M2 macrophages in the presence of immunosuppressive cytokines was carried out. M2 or M2a macrophages were prepared as described above. On day 3, tumor-conditioned medium (TCM) was added M2 macrophage cultures to account for 70% of the volume of the culture and then evaluated for CD163 expression and functional activity on day 6. […] M2a macrophages were cultured in IL-4 as described above.
(§2) The β-glucan-treated M2a macrophages cultured in IL-4 and M2 macrophages cultured in TCM were first evaluated for CD163 and CD86 expression. CD163 and CD86 were evaluated by flow cytometry and median MFI was calculated for isotype control staining and surface antigen staining and the results are shown in Table 5.

M2 macrophages = assay: Flow cytometry of M1/M2-specific markers on M2 macrophages derived from vehicle- or β-glucan-treated whole blood
Procedure: CD14^+ monocytes from human whole blood were enriched using Ficoll gradient and magnetic bead separation. Enriched monocytes (5×10^5 cells per mL) were then cultured in either M1-polarizing (XVivo 10 media (Lonza Group) supplemented with 5% autologous serum and 100 ng/mL recombinant human granulocyte macrophage colony-stimulating factor (rhGM-CSF) (R&D Systems) or M2-polarizing (XVivo 10 media supplemented with 10% autologous serum and 50 ng/mL recombinant human macrophage colony-stimulating factor (rhM-CSF) (R&D Systems) conditions for 6 days. In experiments performed to evaluate the effect of β-glucan, whole blood was first incubated with vehicle (sodium citrate buffer) or 25 μg/mL soluble β-glucan for 2 hours at 37° C. and then the monocytes were isolated and differentiated. Morphology was checked before macrophages were harvested for phenotypic analysis. Culture medium of the day 6 macrophage culture (MCM) was collected, spun down to remove contaminated cell pellet and then frozen down for subsequent cytokine analysis by ELISA or used to setup a co-culture with CD3 & CD28-stimulated CD4 T cells (MCM-CD4 T) for evaluation of either surface markers or CD4 T cell proliferation. The macrophages were used to setup a co-culture with CD3 & CD28- or CD3 only-stimulated CD4 T cells (Mac-CD4 T) on day 6 for evaluation of either surface marker modulation or effect on CD4 T cell proliferation. For Mac-CD4 T cell proliferation study, M1 or M2 macrophages were cultured with CD3 & CD28- or CD3 only-stimulated, CFSE-labeled, autologous CD4 T cells at a 1:10 ratio. T cell proliferation was measured at the end of the experiment (day 9-day 11) by flow cytometry, and results are graphically shown as CFSE-dilution peaks. The assessment of CD3-only stimulated T cells was always done on day 11. Quantitative results were reported as the Division Index (the average number of cell divisions a population underwent) calculated for each of the triplicate wells in each of the culture conditions. Culture supernatants of Mac-CD4 T co-cultures were collected for subsequent cytokine analysis.
M1 and M2 macrophages from vehicle- or β-glucan-treated whole blood were prepared as described above. […] In addition, surface expression of CD86 was enhanced as well as both protein and mRNA levels of PD-L1 (FIG. 2B).
Expression of a panel of markers was evaluated by flow cytometry for vehicle- and β-glucan-treated, high binder-derived M1 and M2 macrophages (CD163 was evaluated twice).
CD163 and CD86 were evaluated by flow cytometry for vehicle- and β-glucan-treated, low binder-derived M1 and M2 macrophages.
as §1, §2
Monocytes or M2 macrophages were prepared as described above. On day 3, TCM was added to account for 70% of the volume of the culture and then evaluated for PD-L1 expression with TCM and then again when co-cultured with CD4 T cells.

IL-4 = IL-4 analysis of co-culture supernatants; conditions: co-cultures of β-glucan-treated M2 macrophages and CD4 T cells
Procedure: CD14^+ monocytes from human whole blood were enriched using Ficoll gradient and magnetic bead separation. Enriched monocytes (5×10^5 cells per mL) were then cultured in either M1-polarizing (XVivo 10 media (Lonza Group) supplemented with 5% autologous serum and 100 ng/mL recombinant human granulocyte macrophage colony-stimulating factor (rhGM-CSF) (R&D Systems) or M2-polarizing (XVivo 10 media supplemented with 10% autologous serum and 50 ng/mL recombinant human macrophage colony-stimulating factor (rhM-CSF) (R&D Systems) conditions for 6 days. In experiments performed to evaluate the effect of β-glucan, whole blood was first incubated with vehicle (sodium citrate buffer) or 25 μg/mL soluble β-glucan for 2 hours at 37° C. and then the monocytes were isolated and differentiated. Morphology was checked before macrophages were harvested for phenotypic analysis. […] T cell proliferation was measured at the end of the experiment (day 9-day 11) by flow cytometry, and results are graphically shown as CFSE-dilution peaks. […] Quantitative results were reported as the Division Index (the average number of cell divisions a population underwent) calculated for each of the triplicate wells in each of the culture conditions. […]
Modulation of IFN-γ and IL-4 production of vehicle- and β-glucan-treated M2 macrophages was then evaluated. […]

[1] = M2 macrophages cultured in TCM (70% of volume, from day 3), immunosuppressive conditions
[2] = M2 macrophages, high binder, 25 μg/mL

Substance: β(1,6)-[poly-(1,3)-D-glucopyranosyl]-poly-β(1,3)-D-glucopyranose [β-glucan]
- CD86 median MFI (M2a macrophages): 4572
- CD163 median MFI (M2a macrophages): 309
- CD86 median MFI (M2 macrophages; [1]): 2697
- CD163 median MFI (M2 macrophages; [1]): 1112
- CD86 median MFI (M2 macrophages; [2]): 2953
- CD163 (1) median MFI (M2 macrophages; [2]): 759
- CD163 (2) median MFI (M2 macrophages; [2]): 1153
- CD206 median MFI (M2 macrophages; [2]): 1056
- CD209 median MFI (M2 macrophages; [2]): 801
- CD274 (PD-L1) median MFI (M2 macrophages; [2]): 4427
- HLA-DR median MFI (M2 macrophages; [2]): 1007
- CD86 median MFI (M2 macrophages; M2 macrophages, low binder): 2284
- CD163 median MFI (M2 macrophages; M2 macrophages, low binder): 3315
- phenotypic markers on monocyte-derived macrophages (M2 macrophages; low binders, M1/M2 polarizing conditions (data not shown)): did not modulate
- surface expression of CD86 (M2 macrophages; β-glucan-treated M2 macrophages): enhanced
- surface expression of PD-L1 (M2 macrophages; β-glucan-treated M2 macrophages cultured in TCM): higher surface expression
- HLA-DR expression (M2 macrophages; β-glucan-treated M2 macrophages cultured in TCM (data not shown)): higher
- PD-L1 expression (M2 macrophages; β-glucan-treated M2 macrophages in TCM co-cultured with CD4 T cells): increased expression
- mean fluorescence intensity (MFI) of CD163 (M2 macrophages; β-glucan-treated M2 macrophages, FIG. 2A): downmodulated
- protein and mRNA levels of PD-L1 (M2 macrophages; β-glucan-treated M2 macrophages, FIG. 2B): enhanced
- production of immunosuppressive cytokine IL-4 (IL-4): no change
